In patent US20250361230A1, “LATS Inhibitors and Uses Thereof” (The USA, as Represented by the Secretary, Dept. of Heath …, priority 2022, published 2025):

What was measured:
Format in all cases: biochemical
AKT = AKT (Homo sapiens, UniProt P31749); assay: RBC HotSpot kinase assay (33P-ATP, P81 filter-binding), AKT; details: Table 28, biochemical kinase assay; read-out: AKT IC50
Outline: (§1)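 Hepes pH 7.5/MgCl2/EGTA/Brij35/BSA/Na3VO4/DTT buffer, cofactors per kinase; cpd acoustically dispensed, 20 min preinc RT; start w/ 33P-ATP, 2 h RT; P81 filter readout; 10-pt singlet IC50.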

LATS2 = target: T1, LATS2 (Homo sapiens, UniProt Q9NRM7); assay: RBC HotSpot kinase assay (33P-ATP, P81 filter-binding), LATS2; details: Table 28, biochemical kinase assay; read-out: LATS2 IC50
T1 sequence (Q9NRM7 1-1088): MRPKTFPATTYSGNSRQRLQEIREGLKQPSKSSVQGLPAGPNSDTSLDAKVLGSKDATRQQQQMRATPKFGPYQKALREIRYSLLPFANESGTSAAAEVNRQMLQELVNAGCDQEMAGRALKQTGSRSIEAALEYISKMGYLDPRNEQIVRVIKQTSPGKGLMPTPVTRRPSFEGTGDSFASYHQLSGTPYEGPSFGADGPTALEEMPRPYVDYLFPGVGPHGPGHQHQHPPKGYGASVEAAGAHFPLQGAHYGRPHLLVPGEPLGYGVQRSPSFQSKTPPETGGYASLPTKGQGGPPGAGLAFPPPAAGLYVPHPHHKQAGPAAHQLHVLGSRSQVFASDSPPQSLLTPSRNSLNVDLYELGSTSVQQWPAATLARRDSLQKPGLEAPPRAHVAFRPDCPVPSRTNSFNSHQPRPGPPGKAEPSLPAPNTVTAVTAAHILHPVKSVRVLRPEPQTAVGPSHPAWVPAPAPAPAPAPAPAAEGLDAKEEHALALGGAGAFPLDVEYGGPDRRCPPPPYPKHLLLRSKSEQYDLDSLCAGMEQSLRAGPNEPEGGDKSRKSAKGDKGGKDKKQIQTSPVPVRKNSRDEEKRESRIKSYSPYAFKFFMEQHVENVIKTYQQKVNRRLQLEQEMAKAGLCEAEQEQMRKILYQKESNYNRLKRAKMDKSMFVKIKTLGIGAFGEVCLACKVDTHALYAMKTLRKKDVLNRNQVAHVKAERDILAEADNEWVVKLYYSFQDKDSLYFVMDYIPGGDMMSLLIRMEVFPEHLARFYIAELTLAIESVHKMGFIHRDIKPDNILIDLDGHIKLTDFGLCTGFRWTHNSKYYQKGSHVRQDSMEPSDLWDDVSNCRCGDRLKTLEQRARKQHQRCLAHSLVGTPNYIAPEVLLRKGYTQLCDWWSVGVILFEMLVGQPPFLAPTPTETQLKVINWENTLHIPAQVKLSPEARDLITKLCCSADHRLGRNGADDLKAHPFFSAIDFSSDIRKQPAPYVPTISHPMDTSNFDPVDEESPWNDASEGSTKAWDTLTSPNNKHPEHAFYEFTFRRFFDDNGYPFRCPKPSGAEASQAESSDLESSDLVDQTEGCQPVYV
Outline: as §1

LATS1 = target: T2, LATS1 (Homo sapiens, UniProt O95835); assay: RBC HotSpot kinase assay (33P-ATP, P81 filter-binding), LATS1; details: Table 28, biochemical kinase assay; read-out: LATS1 IC50
T2 sequence (O95835 1-1130): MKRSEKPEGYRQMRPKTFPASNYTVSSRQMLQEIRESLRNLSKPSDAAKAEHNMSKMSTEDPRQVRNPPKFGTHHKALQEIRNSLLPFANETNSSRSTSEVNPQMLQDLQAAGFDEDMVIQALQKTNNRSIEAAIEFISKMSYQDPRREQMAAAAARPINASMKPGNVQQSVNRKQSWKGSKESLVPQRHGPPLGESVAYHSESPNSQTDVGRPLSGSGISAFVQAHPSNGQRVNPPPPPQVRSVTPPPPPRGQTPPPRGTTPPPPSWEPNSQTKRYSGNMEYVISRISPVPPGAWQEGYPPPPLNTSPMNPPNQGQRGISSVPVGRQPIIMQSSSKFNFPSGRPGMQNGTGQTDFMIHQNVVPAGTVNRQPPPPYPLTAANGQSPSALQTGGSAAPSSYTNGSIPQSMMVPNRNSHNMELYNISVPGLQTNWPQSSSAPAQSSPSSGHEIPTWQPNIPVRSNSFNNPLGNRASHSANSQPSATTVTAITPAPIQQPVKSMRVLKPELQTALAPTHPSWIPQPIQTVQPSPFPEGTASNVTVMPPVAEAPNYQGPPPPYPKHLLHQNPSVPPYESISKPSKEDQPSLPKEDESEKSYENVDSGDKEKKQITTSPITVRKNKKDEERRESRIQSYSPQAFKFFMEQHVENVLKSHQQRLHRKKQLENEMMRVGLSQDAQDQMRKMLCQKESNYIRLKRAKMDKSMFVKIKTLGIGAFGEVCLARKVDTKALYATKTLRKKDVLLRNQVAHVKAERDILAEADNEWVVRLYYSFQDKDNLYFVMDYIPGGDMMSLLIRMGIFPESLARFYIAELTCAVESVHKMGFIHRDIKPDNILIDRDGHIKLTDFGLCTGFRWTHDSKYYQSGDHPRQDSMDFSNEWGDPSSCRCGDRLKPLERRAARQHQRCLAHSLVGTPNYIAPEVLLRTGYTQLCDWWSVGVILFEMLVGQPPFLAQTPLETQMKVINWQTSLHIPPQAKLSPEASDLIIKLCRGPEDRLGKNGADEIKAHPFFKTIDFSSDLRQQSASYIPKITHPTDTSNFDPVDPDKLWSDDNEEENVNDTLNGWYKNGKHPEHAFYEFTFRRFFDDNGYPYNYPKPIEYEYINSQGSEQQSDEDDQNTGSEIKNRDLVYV
Outline: as §1

Sequence of AKT (P31749 whole entry): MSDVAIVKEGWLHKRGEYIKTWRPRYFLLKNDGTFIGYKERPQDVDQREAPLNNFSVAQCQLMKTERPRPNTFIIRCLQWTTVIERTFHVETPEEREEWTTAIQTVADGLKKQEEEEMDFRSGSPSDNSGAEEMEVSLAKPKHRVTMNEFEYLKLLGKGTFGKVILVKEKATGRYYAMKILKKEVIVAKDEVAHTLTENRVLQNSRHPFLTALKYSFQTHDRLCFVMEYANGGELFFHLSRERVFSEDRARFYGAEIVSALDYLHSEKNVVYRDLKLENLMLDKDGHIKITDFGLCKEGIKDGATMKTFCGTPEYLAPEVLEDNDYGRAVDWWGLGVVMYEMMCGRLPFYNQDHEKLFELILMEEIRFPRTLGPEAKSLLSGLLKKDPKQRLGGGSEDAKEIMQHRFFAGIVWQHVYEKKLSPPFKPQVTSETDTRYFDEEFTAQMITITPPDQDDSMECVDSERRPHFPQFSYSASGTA

SMILES | IC50 (AKT) [nM] | IC50 (LATS2) [nM] | IC50 (LATS1) [nM]
NC(=O)c1ccc(-c2ccnc3[nH]ccc23)cc1 [Compound 264, 4-(1H-pyrrolo[2,3-b]pyridin-4-yl)benzamide] | > 10000 | 207 | 343
c1cc(-c2ccc3c(c2)CNC3)c2cc[nH]c2n1 [Compound 265, 4-(isoindolin-5-yl)-1H-pyrrolo[2,3-b]pyridine] | 517 | 13 | 14
COc1cc(-c2ccnc3[nH]ccc23)ccc1CN [Compound 268, (2-methoxy-4-(1H-pyrrolo[2,3-b]pyridin-4-yl)phenyl) methanamine] | 618 | 24 | 24
CCOc1cc(-c2ccnc3[nH]ccc23)ccc1CN [Compound 269, (2-ethoxy-4-(1H-pyrrolo[2,3-b]pyridin-4-yl)phenyl) methanamine] | 789 | 36 | 40
NCc1ccc(-c2ccnc3[nH]ccc23)cc1F [Compound 270, (2-fluoro-4-(1H-pyrrolo[2,3-b]pyridin-4-yl)phenyl) methanamine] | 874 | 34 | 28
NCc1ccc(-c2c(Cl)cnc3[nH]ccc23)cc1 [Compound 272, (4-(5-chloro-1H-pyrrolo[2,3-b]pyridin-4-yl)phenyl) methanamine] | 3100 | 268 | 447
NCc1ccc(-c2c(F)cnc3[nH]ccc23)cc1 [Compound 273, (4-(5-fluoro-1H-pyrrolo[2,3-b]pyridin-4-yl)phenyl) methanamine] | 1390 | 148 | 90
c1ccc(CNCc2ccc(-c3ccnc4[nH]ccc34)cc2)cc1 [Compound 274, N-(4-(1H-pyrrolo[2,3-b]pyridin-4-yl)benzyl)-1-phenylmethanamine] | 2430 | 60.5 | 36.6
c1cc(-c2ccc(CN3CCCC3)cc2)c2cc[nH]c2n1 [Compound 277, 4-(4-(pyrrolidin-1-ylmethyl)phenyl)-1H-pyrrolo[2,3-b]pyridine] | 2200 | 100 | 63

The remaining lines, values ahead:

IC50 (AKT) [nM] | IC50 (LATS2) [nM] | IC50 (LATS1) [nM] | SMILES
321 | 33 | 17 | c1cc(-c2ccc(C3CCCN3)cc2)c2cc[nH]c2n1 (stereo not drawn) [Compound 278, 4-(4-(pyrrolidin-2-yl)phenyl)-1H-pyrrolo[2,3-b]pyridine]
1080 | 29.3 | 9.8 | Fc1ccc(CNCc2ccc(-c3ccnc4[nH]ccc34)cc2)cc1 [Compound 279, N-(4-(1H-pyrrolo[2,3-b]pyridin-4-yl)benzyl)-1-(4-fluorophenyl) methanamine]
859 | 25.6 | 10.8 | Fc1cccc(CNCc2ccc(-c3ccnc4[nH]ccc34)cc2)c1 [Compound 280, N-(4-(1H-pyrrolo[2,3-b]pyridin-4-yl)benzyl)-1-(3-fluorophenyl) methanamine]
4620 | 170 | 82.4 | CC(C)(O)C#Cc1cc(-c2ccnc3[nH]ccc23)ccc1CNCc1ccc(F)cc1 [Compound 281, 4-(2-(((4-fluorobenzyl)amino)methyl)-5-(1H-pyrrolo[2,3-b]pyridin-4-yl)phenyl)-2-methylbut-3-yn-2-ol]
3800 | 59.2 | 31.4 | Fc1ccc(CNCc2ccc(-c3ccnc4[nH]ccc34)cc2Cl)cc1 [Compound 282, N-(2-chloro-4-(1H-pyrrolo[2,3-b]pyridin-4-yl)benzyl)-1-(4-fluorophenyl) methanamine]
732 | 20 | 8 | NCc1ccc(-c2ccnc3[nH]ccc23)cc1Cl [Compound 283, (2-chloro-4-(1H-pyrrolo[2,3-b]pyridin-4-yl)phenyl) methanamine]
1990 | 191 | 167 | FC(F)(F)Oc1cccc(CNCc2ccc(-c3ccnc4[nH]ccc34)cc2)c1 [Compound 285, N-(4-(1H-pyrrolo[2,3-b]pyridin-4-yl)benzyl)-1-(3-(trifluoromethoxy)phenyl) methanamine]
3410 | 1260 | 5050 | NCc1ccc(-c2ccnc3[nH]ccc23)c(C(F)(F)F)c1 [Compound 286, (4-(1H-pyrrolo[2,3-b]pyridin-4-yl)-3-(trifluoromethyl)phenyl) methanamine]
282 | 1.6 | 3.2 | COC(=O)c1c[nH]c2nccc(-c3ccc([C@@]4(O)[C@H](C)CNC[C@@H]4C)c(C)c3)c12 [Compound 300, methyl 4-(4-((3S,4s,5R)-4-hydroxy-3,5-dimethylpiperidin-4-yl)-3-methylphenyl)-1H-pyrrolo[2,3-b]pyridine-3-carboxylate]
39.5 | 4.9 | 8.7 | CCc1cc(-c2ccnc3[nH]cc(F)c23)ccc1[C@@]1(O)[C@H](C)CNC[C@@H]1C [Compound 302, (3S,4s,5R)-4-(2-ethyl-4-(3-fluoro-1H-pyrrolo[2,3-b]pyridin-4-yl)phenyl)-3,5-dimethylpiperidin-4-ol]
246 | 3.3 | 4.8 | Cc1cc(-c2ccnc3[nH]cc(Cl)c23)cc(F)c1[C@@]1(O)[C@H](C)CNC[C@@H]1C [Compound 303, (3S,4s,5R)-4-(4-(3-chloro-1H-pyrrolo[2,3-b]pyridin-4-yl)-2-fluoro-6-methylphenyl)-3,5-dimethylpiperidin-4-ol]
31.2 | 5.4 | 11.6 | CCc1cc(-c2ccnc3[nH]cc(F)c23)ccc1[C@@]1(O)[C@H](C)CN(C2CCS(=O)(=O)CC2)C[C@@H]1C [Compound 306, 4-((3S,4s,5R)-4-(2-ethyl-4-(3-fluoro-1H-pyrrolo[2,3-b]pyridin-4-yl)phenyl)-4-hydroxy-3,5-dimethylpiperidin-1-yl)tetrahydro-2H-thiopyran 1,1-dioxide]
206 | 3.1 | 4.2 | Cc1cc(-c2ccnc3[nH]cc(Cl)c23)cc(F)c1[C@@]1(O)[C@H](C)CN(C2CCS(=O)(=O)CC2)C[C@@H]1C [Compound 307, 4-((3S,4s,5R)-4-(4-(3-chloro-1H-pyrrolo[2,3-b]pyridin-4-yl)-2-fluoro-6-methylphenyl)-4-hydroxy-3,5-dimethylpiperidin-1-yl)tetrahydro-2H-thiopyran 1,1-dioxide]
